Measured values as given in paper PMC10142799, “Synthesis, In Silico and In Vitro Characterization of Novel N,N-Substituted Pyrazolopyrimidine Acetamide Derivatives for the 18KDa Translocator Protein (TSPO)” (Pharmaceuticals, 2023).
“And” between values parts separate entries of the source, which are not always exact repeats. Identical values can stand only once. Like-named read-outs stand apart in the source and are kept apart here.

Assays:
[1] = target: T1, TSPO (Homo sapiens, UniProt P30536); test: In vitro TSPO binding assay, competition with [3H]PK11195 in membrane of human leukocytes
T1 construct: from tissue; host or cells: isolated human leukocytes (membranes)

[2] = In vitro cytotoxicity (MTT assay) on L-929 cells; type: cell-based, mouse; conditions: mouse, L-929 mouse fibroblast cells, L-929, 24 h, MTT, read-out: Cell viability
Procedure: (§1) Five concentrations of each compound dissolved in 2% of DMSO in culture media (50 μL) were introduced into cell media (96-well plate). The cell cultures treated with ligands were incubated 24 h, and then the media were removed. The cell crudes were measured at 570 nm and 650 nm using a MTT reagent. All procedures and reagents followed ISO 10993-5 and ISO 10993-12.
(§2) 929, mouse fibroblast cells) were cultured in a 96 well plate and treated with 50 […]
(§3) concentration. After incubation at 37 ° C for 24 hours under CO […]
(§4) fluid, the treated culture medium was removed and the absorbance of each samples were measured at 570 and 650 nm using MTT reagent.
(§5) Blank was administered with only 50uL of cell incubation media. As a control, a 50 […]
(§6) n media was administered.
(§7) MTT assay followed ISO 10993 […]
(§8) values of cell viability for GMA 10, GMA 11, GMA 15, DPA

[3] = tested on: L-929 (mouse fibroblast cells); test: In vitro cytotoxicity (MTT assay) on L-929 cells; type: cell-based; conditions: Mus musculus, read-out: IC50 values of cell viability
Procedure: as §1, §2, §3, §4, §5, §6, §7, §8

[4] = L929, L-929, 24 h, MTT, same values given in μM

T1 sequence (P30536 whole entry): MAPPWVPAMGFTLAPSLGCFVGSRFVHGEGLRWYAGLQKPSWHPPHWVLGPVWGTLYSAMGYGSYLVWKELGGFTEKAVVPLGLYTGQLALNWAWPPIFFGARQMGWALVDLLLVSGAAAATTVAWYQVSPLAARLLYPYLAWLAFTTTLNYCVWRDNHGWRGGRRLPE

Structure (SMILES) | Ki [1] [nM] | viability at 24 h, 3.125 μg/mL [2] [%] | viability at 24 h, 6.25 μg/mL [2] [%] | viability at 24 h, 12.5 μg/mL [2] [%] | viability at 24 h, 25 μg/mL [2] [%] | viability at 24 h, 50 μg/mL [2] [%] | IC50 ([3]; L929, L-929, 24 h, MTT) [µg/mL] | IC50 [3, 4] [µM] | fold enhancement in affinity compared to DPA-714 ([1]; ratio of Ki values) [fold] | fold higher affinity compared to PK11195 ([1]; ratio of Ki values) [fold] | IC50 ([3]; L929, 24 h)
CCN(CC)C(=O)Cc1c(-c2ccc(OCCF)cc2)nn2c(C)cc(C)nc12 [DPA-714, reference compound] | 3.66 | 51 ± 4.08 | 47.3 ± 3.44 | 45.2 ± 1.86 | 32.1 ± 2.54 | 11.2 ± 1.94 | 18.6 | 46.7 | – | – | –
CCc1cc(CC)n2nc(-c3ccc(F)cc3)c(CC(=O)N(C)CC)c2n1 [GMA 7, 2-(5,7-diethyl-2-(4-fluorophenyl)pyrazolo [1,5-a]pyrimidin-3-yl)-N-ethyl-N-methylacetamide] | 17.1 | – | – | – | – | – | – | – | – | – | –
CCc1cc(CC)n2nc(-c3ccc(F)cc3)c(CC(=O)N(CC)CC)c2n1 [GMA 8, 2-(5,7-diethyl-2-(4-fluorophenyl)pyrazolo [1,5-a]pyrimidin-3-yl)-N,N-diethylacetamide] | 8.79 | – | – | – | – | – | – | – | – | – | –
CCc1cc(CC)n2nc(-c3ccc(F)cc3)c(CC(=O)N(CC)C(C)C)c2n1 [GMA 9, 2-(5,7-Diethyl-2-(4-fluorophenyl)pyrazolo [1,5-a]pyrimidin-3-yl)-N-ethyl-N-isopropyl acetamide] | 13.3 | – | – | – | – | – | – | – | – | – | –
CCCN(CCC)C(=O)Cc1c(-c2ccc(F)cc2)nn2c(CC)cc(CC)nc12 [GMA 10, 2-(5,7-diethyl-2-(4-fluorophenyl)pyrazolo [1,5-a]pyrimidin-3-yl)-N,N-dipropylacetamide] | 0.18 | 64.5 ± 1.19 | 53.4 ± 2.02 | 39.8 ± 0.74 | 24.6 ± 3.13 | 19.8 ± 1.19 | 15.2 | 37.1 | – | – | –
CCc1cc(CC)n2nc(-c3ccc(F)cc3)c(CC(=O)N(CC)CCOC)c2n1 [GMA 11, 2-(5,7-diethyl-2-(4-fluorophenyl)pyrazolo [1,5-a]pyrimidin-3-yl)-N-ethyl-N-(2-methoxyethyl) acetamide] | 0.19 | 61.7 ± 0.71 | 58.3 ± 3.12 | 39.5 ± 0.63 | 33.5 ± 2.28 | 28.9 ± 1.12 | 36.2 | 87.8 | – | – | –
CCc1cc(CC)n2nc(-c3ccc(F)cc3)c(CC(=O)N(CCOC)CCOC)c2n1 [GMA 12, 2-(5,7-Diethyl-2-(4-fluorophenyl)pyrazolo [1,5-a]pyrimidin-3-yl)-N,N-bis(2-methoxyethyl) acetamide] | 25.4 | – | – | – | – | – | – | – | – | – | –
C#CCN(CC#C)C(=O)Cc1c(-c2ccc(F)cc2)nn2c(CC)cc(CC)nc12 [GMA 13, 2-(5,7-diethyl-2-(4-fluorophenyl)pyrazolo [1,5-a]pyrimidin-3-yl)-N,N-di(prop-2-yn-1-yl) acetamide] | 0.9 | – | – | – | – | – | – | – | – | – | –
CCc1cc(CC)n2nc(-c3ccc(F)cc3)c(CC(=O)N(CC)c3ccccc3)c2n1 [GMA 15, 2-(5,7-diethyl-2-(4-fluorophenyl)pyrazolo [1,5-a]pyrimidin-3-yl)-N-ethyl-N-phenylacetamide] | 0.06 | 57.9 ± 4.04 | 50.6 ± 2.39 | 26 ± 8.01 | 9.6 ± 1.6 | 6.6 ± 2.15 | 9.73 | 22.6 | 61 | 22 | –
CCc1cc(CC)n2nc(-c3ccc(F)cc3)c(CC(=O)N(CC)Cc3ccccc3OC)c2n1 [GMA 16, 2-(5,7-diethyl-2-(4-fluorophenyl)pyrazolo [1,5-a]pyrimidin-3-yl)-N-ethyl-N-(2-methoxybenzyl)acetamide] | 0.49 | – | – | – | – | – | – | – | – | – | –
CCc1cc(CC)n2nc(-c3ccc(F)cc3)c(CC(=O)N(CC)Cc3cc(OC)ccc3OC)c2n1 [GMA 17, 2-(5,7-diethyl-2-(4-fluorophenyl)pyrazolo [1,5-a]pyrimidin-3-yl)-N-(2,5-dimethoxybenzyl)-N-ethylacetamide] | 0.54 | – | – | – | – | – | – | – | – | – | –
CCC(C)N(C)C(=O)c1cc2ccccc2c(-c2ccccc2Cl)n1 (centres unmarked) [PK11195, reference compound] | – | 57.8 ± 5.22 | 49.08 ± 0.43 | 48.18 ± 0.43 | 38.3 ± 4.8 | 32.8 ± 3.14 | – | – | – | – | 22.1 µg/mL and 62.7 µM
